In assay [1] the target is T1, Rho-kinase (Bos taurus, UniProt Q28021).
T1 construct: thus detecting the band of Rho-kinase at around 160 kDa; tissue Shiraimatsu; host or cells: bovine brain (cerebral gray matter) extract
The assay can be described thus: antibody plate assay: Rho-kinase immobilized from bovine brain extract, phosphorylation of Histone HF2A. Particulars: Histone HF2A substrate, [33P]ATP, reaction time four hours. It is filed as biochemical. Here is the method: After allowed to stand for 1.5 hours at room temperature, the solution was removed, and 200 μl of blocking solution in which Block Ace (DAINIPPON PHARMACEUTICAL) UK-B25 was diluted four times with PBS(−)) was added into the plate, followed by stirring the solution therein. The plate was allowed to stand for additional 1.5 hours at room temperature, washed three times with 200 μl of PBST (0.05% Tween20/PBS(−)), and added with a 0.1 μg/50 μl solution of anti-Rho-kinase antibody in PBS(−).
(§1) ATP/30 μl. […] The reaction time was four hours.
(§2) SPA Multiscreen method was used for the estimation of the plate.
The inhibitory activity of these inhibitors was determined based on the radioactivity showing the phosphorylation that was detected in the antibody plate assay system, and compared to those previously reported, so that the plate was estimated in terms of the usefulness in a screening system for discovering inhibitors.

Another assay addresses T2, ROKa/ROK-II, active Cat (Rattus norvegicus, UniProt Q62868).
T2 construct: purchased Upstate
The assay is described as follows: phosphorylation assay with ROKa/ROK-II, active Cat (Upstate) under a similar condition. It is filed as biochemical. The method, then: as §1, §2

Assay [2] has as its target Rho-kinase. Particulars: read-out: Ki value; cited from earlier work.
Assay [3] has as its system Rho-kinase. The assay can be described thus: inhibition of the binding of Rho-kinase to anti-Rho-kinase antibody-immobilized plate. Set-up: species or system bovine. The method, then:
Fifty μl of the dilution of the rabbit anti-goat IgG/Fc (Nippon Chemi-Con Corp.) in PBS(−) was pipetted into Immunoplate II (Nunc, 442404, High binding capacity) or a fluorescence/luminescence solid assay plate (COSTAR, 3922 white). After allowed to stand for 1.5 hours at room temperature, the solution was removed, and 200 μl of blocking solution in which Block Ace (DAINIPPON PHARMACEUTICAL) UK-B25 was diluted four times with PBS(−)) was added into the plate, followed by stirring the solution therein. The plate was allowed to stand for additional 1.5 hours at room temperature, washed three times with 200 μl of PBST (0.05% Tween20/PBS(−)), and added with a 0.1 μg/50 μl solution of anti-Rho-kinase antibody in PBS(−). After allowed to stand for additional 1.5 hours at room temperature, the plate was washed three times with 200 μl of PBST. Into the plate was placed 50 μl of 1.5 mg/ml bovine brain lysates, and the resultant plate was allowed to stand overnight at 4° C. This was washed twice with 200 μl of PBST, and once with 200 μl of PBS(−) to provide an immobilized plate.
Various concentrations of the antigen peptide used to prepare the anti-Rho-kinase antibody were supplemented to the bovine brain extract, and then Rho-kinase in the extract was immobilized onto the plate under the optimal conditions as found in Example 5. […]

Read-outs that look alike come from different tables or passages of the source.

T1 sequence (Q28021 whole entry): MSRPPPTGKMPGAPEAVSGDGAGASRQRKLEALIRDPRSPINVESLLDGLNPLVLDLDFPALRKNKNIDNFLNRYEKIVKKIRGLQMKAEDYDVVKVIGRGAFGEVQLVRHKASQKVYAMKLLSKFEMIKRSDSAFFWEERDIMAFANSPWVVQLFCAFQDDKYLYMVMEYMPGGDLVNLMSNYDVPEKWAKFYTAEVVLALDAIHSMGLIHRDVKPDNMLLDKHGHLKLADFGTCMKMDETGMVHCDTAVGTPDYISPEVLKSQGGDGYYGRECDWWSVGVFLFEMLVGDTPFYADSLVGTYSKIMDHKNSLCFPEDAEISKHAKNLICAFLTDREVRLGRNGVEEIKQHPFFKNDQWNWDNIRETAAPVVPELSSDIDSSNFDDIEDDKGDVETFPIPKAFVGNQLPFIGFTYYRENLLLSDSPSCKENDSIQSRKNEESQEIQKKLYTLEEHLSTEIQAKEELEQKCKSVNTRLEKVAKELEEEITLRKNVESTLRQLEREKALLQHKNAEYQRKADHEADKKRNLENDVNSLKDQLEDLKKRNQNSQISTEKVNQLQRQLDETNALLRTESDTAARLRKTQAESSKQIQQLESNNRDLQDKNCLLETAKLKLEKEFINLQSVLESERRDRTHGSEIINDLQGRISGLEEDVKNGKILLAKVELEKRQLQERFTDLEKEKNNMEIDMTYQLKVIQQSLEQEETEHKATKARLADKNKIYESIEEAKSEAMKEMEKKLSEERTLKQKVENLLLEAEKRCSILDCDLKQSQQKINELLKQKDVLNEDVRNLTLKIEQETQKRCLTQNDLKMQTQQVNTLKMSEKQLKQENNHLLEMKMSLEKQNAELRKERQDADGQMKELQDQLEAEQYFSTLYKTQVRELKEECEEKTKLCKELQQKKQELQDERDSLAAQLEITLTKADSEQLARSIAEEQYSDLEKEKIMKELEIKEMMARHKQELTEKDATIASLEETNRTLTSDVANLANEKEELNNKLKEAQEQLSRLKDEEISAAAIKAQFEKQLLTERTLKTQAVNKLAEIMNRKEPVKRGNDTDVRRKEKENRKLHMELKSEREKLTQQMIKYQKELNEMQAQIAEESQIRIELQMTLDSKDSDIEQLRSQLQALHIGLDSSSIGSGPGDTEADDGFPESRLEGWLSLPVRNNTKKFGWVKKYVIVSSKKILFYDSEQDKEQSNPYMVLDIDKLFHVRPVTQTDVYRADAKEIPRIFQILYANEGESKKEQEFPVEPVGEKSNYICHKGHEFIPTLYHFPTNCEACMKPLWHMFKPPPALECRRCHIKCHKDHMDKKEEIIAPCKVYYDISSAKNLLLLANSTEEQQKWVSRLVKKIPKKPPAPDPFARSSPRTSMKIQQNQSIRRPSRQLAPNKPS
T2 sequence (Q62868 11-552 limits assumed): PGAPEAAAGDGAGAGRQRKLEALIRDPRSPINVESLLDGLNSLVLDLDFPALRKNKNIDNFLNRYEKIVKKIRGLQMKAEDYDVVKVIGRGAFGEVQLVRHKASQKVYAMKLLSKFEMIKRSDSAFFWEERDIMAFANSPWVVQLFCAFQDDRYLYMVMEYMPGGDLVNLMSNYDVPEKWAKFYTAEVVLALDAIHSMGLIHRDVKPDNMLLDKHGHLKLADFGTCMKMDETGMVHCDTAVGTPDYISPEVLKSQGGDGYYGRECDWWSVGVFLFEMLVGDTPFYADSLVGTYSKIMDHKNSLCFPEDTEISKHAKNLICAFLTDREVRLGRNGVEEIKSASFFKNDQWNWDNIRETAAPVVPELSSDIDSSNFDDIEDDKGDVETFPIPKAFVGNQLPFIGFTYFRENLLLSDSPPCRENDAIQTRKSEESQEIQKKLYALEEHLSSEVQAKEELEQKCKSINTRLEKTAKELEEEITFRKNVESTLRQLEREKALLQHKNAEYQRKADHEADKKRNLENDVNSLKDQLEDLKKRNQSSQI

In the case of `C[C@@H](N)[C@H]1CC[C@H](C(=O)Nc2ccncc2)CC1` [Y-27632], the IC50 against Rho-kinase [1] (IC50 value, bovine brain) amounted to 350 nM; on ROKa/ROK-II, active Cat, 790 nM. Besides, the Ki on Rho-kinase [2] is 140 nM.

In the case of `COc1ccc2c(c[n+](C)c3c4cc5c(cc4ccc23)OCO5)c1OC` [chelerythrine], the IC50 at Rho-kinase [1] (read-out: IC50 value, bovine brain) stood at 20000 nM; on ROKa/ROK-II, active Cat (similar assay condition, read-out: IC50 value, ROKa/ROK-II active Cat), 11000 nM.

On to “IQQNQSIRRPSRQLAPNKPS [antigen peptide, 20 amino acid C-terminal partial peptide of Rho-kinase used to prepare the anti-Rho-kinase antibody]”, for which the “inhibition of the immobilization of Rho-kinase” value in the assay on Rho-kinase [3] (3.5 μM of the peptide) is on record as approximately 100%. Besides, the IC50 on Rho-kinase [3] (peptide supplemented to bovine brain extract, read-out: IC50 value, inhibition of immobilization of Rho-kinase) came out at 350 nM.

For orientation: Ki means the equilibrium dissociation constant of an inhibitor or competing ligand from its target.

These data come from patent US20020077296A1, “High-throughput screening method” (priority 2000, published 2002).
